Reference: PubChem BioAssay (NCI)
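96-well plates; 48 h exposure; 5 concentrations. Endpoints by linear interpolation between flanking doses. Not reached: highest tested concentration assigned. TGI: concentration producing complete growth inhibition.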

test system: SF-539 CNS; assay: growth of human tumour cells (NCI), 48 h

`CC(CCOc1c2ccoc2cc2oc(=O)ccc12)C1=CC(=O)C(C)(C)O1` (centres undefined) and `O=C1c2ccccc2-c2nc(-c3ccncc3)cc3c2c1nc1ccccc13` cannot be ordered by TGI: > 100 µM for the first, > 100 µM for the second.

`CC(=O)OC1CC2CC(=O)CC1N2C` (centres undefined) was tested, and the TGI was > 100 µM.

test system: SK-MEL-2 melanoma; assay: growth of human tumour cells (NCI), 48 h

First: Cc1ccc(NC(=O)/C(CC2N=c3c(ccc4c(O)c5ccccc5c(O)c34)=NC2O)=N/NC(C)(C)C)cc1 (centres undefined)
Second: COc1ccc(-c2csc(-n3c(-c4ccccc4)nc4c(Br)cc(Br)cc4c3=O)n2)cc1
The TGI of the first is lower: 81.9 µM for the first, > 100 µM for the second.

Compared with `CC(CCOc1c2ccoc2cc2oc(=O)ccc12)C1=CC(=O)C(C)(C)O1` (centres undefined), `O=C1c2ccccc2-c2nc(-c3ccncc3)cc3c2c1nc1ccccc13` is lower in TGI: > 100 µM for the first, 26.3 µM for the second.

For `CC(=O)OC1CC2CC(=O)CC1N2C` (centres undefined), the TGI was > 100 µM.

test system: SK-MEL-28 melanoma; assay: growth of human tumour cells (NCI), 48 h

`Cc1ccc(NC(=O)/C(CC2N=c3c(ccc4c(O)c5ccccc5c(O)c34)=NC2O)=N/NC(C)(C)C)cc1` (centres undefined) and `COc1ccc(-c2csc(-n3c(-c4ccccc4)nc4c(Br)cc(Br)cc4c3=O)n2)cc1` are within 1.5-fold of each other in TGI: 39.3 µM for the first, 57.8 µM for the second.

`CC(CCOc1c2ccoc2cc2oc(=O)ccc12)C1=CC(=O)C(C)(C)O1` (centres undefined) and `O=C1c2ccccc2-c2nc(-c3ccncc3)cc3c2c1nc1ccccc13` cannot be ordered by TGI: > 100 µM for the first, > 100 µM for the second.

For `CC(=O)OC1CC2CC(=O)CC1N2C` (centres undefined), the TGI was > 100 µM.

test system: SK-MEL-5 melanoma; assay: growth of human tumour cells (NCI), 48 h

Compared with `Cc1ccc(NC(=O)/C(CC2N=c3c(ccc4c(O)c5ccccc5c(O)c34)=NC2O)=N/NC(C)(C)C)cc1` (centres undefined), `COc1ccc(-c2csc(-n3c(-c4ccccc4)nc4c(Br)cc(Br)cc4c3=O)n2)cc1` is 1.5-fold higher in TGI: 24.2 µM for the first, 36.9 µM for the second.

`CC(CCOc1c2ccoc2cc2oc(=O)ccc12)C1=CC(=O)C(C)(C)O1` (centres undefined) and `CC(=O)OC1CC2CC(=O)CC1N2C` (centres undefined) cannot be ordered by TGI: > 100 µM for the first, > 100 µM for the second.

test system: SK-OV-3 ovarian; assay: growth of human tumour cells (NCI), 48 h

First: Cc1ccc(NC(=O)/C(CC2N=c3c(ccc4c(O)c5ccccc5c(O)c34)=NC2O)=N/NC(C)(C)C)cc1 (centres undefined)
Second: COc1ccc(-c2csc(-n3c(-c4ccccc4)nc4c(Br)cc(Br)cc4c3=O)n2)cc1
The TGI of the first is lower: 33.6 µM for the first, > 100 µM for the second.

`CC(CCOc1c2ccoc2cc2oc(=O)ccc12)C1=CC(=O)C(C)(C)O1` (centres undefined) and `O=C1c2ccccc2-c2nc(-c3ccncc3)cc3c2c1nc1ccccc13` cannot be ordered by TGI: > 100 µM for the first, > 100 µM for the second.

With `CC(=O)OC1CC2CC(=O)CC1N2C` (centres undefined) the TGI was > 100 µM.

test system: SN12C renal; assay: growth of human tumour cells (NCI), 48 h

Compared with `Cc1ccc(NC(=O)/C(CC2N=c3c(ccc4c(O)c5ccccc5c(O)c34)=NC2O)=N/NC(C)(C)C)cc1` (centres undefined), `O=C1c2ccccc2-c2nc(-c3ccncc3)cc3c2c1nc1ccccc13` is higher in TGI: 44.8 µM for the first, > 100 µM for the second.

`CC(CCOc1c2ccoc2cc2oc(=O)ccc12)C1=CC(=O)C(C)(C)O1` (centres undefined) and `CC(=O)OC1CC2CC(=O)CC1N2C` (centres undefined) cannot be ordered by TGI: > 100 µM for the first, > 100 µM for the second.

test system: SNB-19 CNS; assay: growth of human tumour cells (NCI), 48 h

`Cc1ccc(NC(=O)/C(CC2N=c3c(ccc4c(O)c5ccccc5c(O)c34)=NC2O)=N/NC(C)(C)C)cc1` (centres undefined) and `COc1ccc(-c2csc(-n3c(-c4ccccc4)nc4c(Br)cc(Br)cc4c3=O)n2)cc1` cannot be ordered by TGI: > 100 µM for the first, > 100 µM for the second.

`CC(CCOc1c2ccoc2cc2oc(=O)ccc12)C1=CC(=O)C(C)(C)O1` (centres undefined) and `O=C1c2ccccc2-c2nc(-c3ccncc3)cc3c2c1nc1ccccc13` cannot be ordered by TGI: > 100 µM for the first, > 100 µM for the second.

In the case of `CC(=O)OC1CC2CC(=O)CC1N2C` (centres undefined), the TGI is reported as > 100 µM.

test system: SNB-75 CNS; assay: growth of human tumour cells (NCI), 48 h

Compared with `Cc1ccc(NC(=O)/C(CC2N=c3c(ccc4c(O)c5ccccc5c(O)c34)=NC2O)=N/NC(C)(C)C)cc1` (centres undefined), `COc1ccc(-c2csc(-n3c(-c4ccccc4)nc4c(Br)cc(Br)cc4c3=O)n2)cc1` is higher in TGI: 91.1 µM for the first, > 100 µM for the second.

`O=C1c2ccccc2-c2nc(-c3ccncc3)cc3c2c1nc1ccccc13` and `CC(=O)OC1CC2CC(=O)CC1N2C` (centres undefined) cannot be ordered by TGI: > 100 µM for the first, > 100 µM for the second.

test system: SR leukemia; assay: growth of human tumour cells (NCI), 48 h

Going from `CC(CCOc1c2ccoc2cc2oc(=O)ccc12)C1=CC(=O)C(C)(C)O1` (centres undefined) to `O=C1c2ccccc2-c2nc(-c3ccncc3)cc3c2c1nc1ccccc13`, the TGI falls from > 100 µM to 44.8 µM.

`CC(=O)OC1CC2CC(=O)CC1N2C` (centres undefined) was tested, and the TGI was > 100 µM.

test system: SW-620 colon; assay: growth of human tumour cells (NCI), 48 h

Compared with `Cc1ccc(NC(=O)/C(CC2N=c3c(ccc4c(O)c5ccccc5c(O)c34)=NC2O)=N/NC(C)(C)C)cc1` (centres undefined), `COc1ccc(-c2csc(-n3c(-c4ccccc4)nc4c(Br)cc(Br)cc4c3=O)n2)cc1` is higher in TGI: 70.2 µM for the first, > 100 µM for the second.

`CC(CCOc1c2ccoc2cc2oc(=O)ccc12)C1=CC(=O)C(C)(C)O1` (centres undefined) and `O=C1c2ccccc2-c2nc(-c3ccncc3)cc3c2c1nc1ccccc13` cannot be ordered by TGI: > 100 µM for the first, > 100 µM for the second.

With `CC(=O)OC1CC2CC(=O)CC1N2C` (centres undefined) the TGI was > 100 µM.

test system: T-47D breast; assay: growth of human tumour cells (NCI), 48 h

With `CC(=O)OC1CC2CC(=O)CC1N2C` (centres undefined) the TGI was > 100 µM.

test system: TK-10 renal; assay: growth of human tumour cells (NCI), 48 h

Going from `Cc1ccc(NC(=O)/C(CC2N=c3c(ccc4c(O)c5ccccc5c(O)c34)=NC2O)=N/NC(C)(C)C)cc1` (centres undefined) to `COc1ccc(-c2csc(-n3c(-c4ccccc4)nc4c(Br)cc(Br)cc4c3=O)n2)cc1`, the TGI rises from 39.6 µM to > 100 µM.

`CC(CCOc1c2ccoc2cc2oc(=O)ccc12)C1=CC(=O)C(C)(C)O1` (centres undefined) and `O=C1c2ccccc2-c2nc(-c3ccncc3)cc3c2c1nc1ccccc13` cannot be ordered by TGI: > 100 µM for the first, > 100 µM for the second.

In the case of `CC(=O)OC1CC2CC(=O)CC1N2C` (centres undefined), the TGI is reported as > 100 µM.

test system: U251 CNS; assay: growth of human tumour cells (NCI), 48 h

First: Cc1ccc(NC(=O)/C(CC2N=c3c(ccc4c(O)c5ccccc5c(O)c34)=NC2O)=N/NC(C)(C)C)cc1 (centres undefined)
Second: COc1ccc(-c2csc(-n3c(-c4ccccc4)nc4c(Br)cc(Br)cc4c3=O)n2)cc1
The TGI of the first is lower: 63.4 µM for the first, > 100 µM for the second.

Going from `CC(CCOc1c2ccoc2cc2oc(=O)ccc12)C1=CC(=O)C(C)(C)O1` (centres undefined) to `O=C1c2ccccc2-c2nc(-c3ccncc3)cc3c2c1nc1ccccc13`, the TGI falls from > 100 µM to 33.2 µM.

With `CC(=O)OC1CC2CC(=O)CC1N2C` (centres undefined) the TGI was > 100 µM.

test system: UACC-257 melanoma; assay: growth of human tumour cells (NCI), 48 h

`Cc1ccc(NC(=O)/C(CC2N=c3c(ccc4c(O)c5ccccc5c(O)c34)=NC2O)=N/NC(C)(C)C)cc1` (centres undefined) and `COc1ccc(-c2csc(-n3c(-c4ccccc4)nc4c(Br)cc(Br)cc4c3=O)n2)cc1` cannot be ordered by TGI: > 100 µM for the first, > 100 µM for the second.

Going from `CC(CCOc1c2ccoc2cc2oc(=O)ccc12)C1=CC(=O)C(C)(C)O1` (centres undefined) to `O=C1c2ccccc2-c2nc(-c3ccncc3)cc3c2c1nc1ccccc13`, the TGI falls from > 100 µM to 47.3 µM.

With `CC(=O)OC1CC2CC(=O)CC1N2C` (centres undefined) the TGI was > 100 µM.

test system: UACC-62 melanoma; assay: growth of human tumour cells (NCI), 48 h

First: Cc1ccc(NC(=O)/C(CC2N=c3c(ccc4c(O)c5ccccc5c(O)c34)=NC2O)=N/NC(C)(C)C)cc1 (centres undefined)
Second: COc1ccc(-c2csc(-n3c(-c4ccccc4)nc4c(Br)cc(Br)cc4c3=O)n2)cc1
The TGI of the first is lower: 45.8 µM for the first, > 100 µM for the second.

First: CC(CCOc1c2ccoc2cc2oc(=O)ccc12)C1=CC(=O)C(C)(C)O1 (centres undefined)
Second: O=C1c2ccccc2-c2nc(-c3ccncc3)cc3c2c1nc1ccccc13
The TGI of the first is higher: > 100 µM for the first, 26.2 µM for the second.

In the case of `CC(=O)OC1CC2CC(=O)CC1N2C` (centres undefined), the TGI is reported as > 100 µM.

test system: UO-31 renal; assay: growth of human tumour cells (NCI), 48 h

Going from `Cc1ccc(NC(=O)/C(CC2N=c3c(ccc4c(O)c5ccccc5c(O)c34)=NC2O)=N/NC(C)(C)C)cc1` (centres undefined) to `COc1ccc(-c2csc(-n3c(-c4ccccc4)nc4c(Br)cc(Br)cc4c3=O)n2)cc1`, the TGI rises from 17.5 µM to 68.2 µM (3.9-fold).

`CC(CCOc1c2ccoc2cc2oc(=O)ccc12)C1=CC(=O)C(C)(C)O1` (centres undefined) and `O=C1c2ccccc2-c2nc(-c3ccncc3)cc3c2c1nc1ccccc13` cannot be ordered by TGI: > 100 µM for the first, > 100 µM for the second.

In the case of `CC(=O)OC1CC2CC(=O)CC1N2C` (centres undefined), the TGI is reported as > 100 µM.
